According to ChEMBL document CHEMBL1201862, “PubChem BioAssay data set” (2004):
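These data come from cells grown in 96-well plates and exposed to compound for 48 hours at five concentrations. GI50: concentration for 50% inhibition of growth.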 Active and inactive are the calls of the source. No stated cut-off is given here; in the data, active = GI50 up to about 1.1 µM and inactive = higher. Peptide text beside a SMILES is read from it. * marks the point of attachment. Cbz = O=C(OCc1ccccc1)*

Columns and labels:
Experiment in all cases: growth of human tumour cells (NCI), 48 h
[1] = system: HCT-116
[2] = system: DU-145
[3] = system: MDA-N
[4] = system: SR
[5] = system: SK-OV-3
[6] = system: HCT-15
[7] = system: SNB-19
[8] = system: SK-MEL-5
[9] = system: IGROV-1
[10] = system: SF-295
[11] = system: UACC-62
[12] = system: RXF 393
[13] = system: M14
[14] = system: OVCAR-5
[15] = system: NCI/ADR-RES
[16] = system: KM12
[17] = system: RPMI-8226
[18] = system: A498
[19] = system: K562
[20] = system: Hs-578T
[21] = system: MDA-MB-435
[22] = system: CCRF-CEM
[23] = system: HOP-62
[24] = system: SK-MEL-2
[25] = system: SN12C
[26] = system: U-251
[27] = system: CAKI-1
[28] = system: Malme-3M
[29] = system: COLO 205
[30] = system: HT-29
[31] = system: OVCAR-8
[32] = system: UO-31
[33] = system: NCI-H226
[34] = system: SNB-75
[35] = system: T47D
[36] = system: MCF7
[37] = system: SK-MEL-28
[38] = system: NCI-H522
[39] = system: HCC 2998
[40] = system: NCI-H23
[41] = system: HL-60
[42] = system: OVCAR-3
[43] = system: MOLT-4
[44] = system: MDA-MB-231
[45] = system: BT-549
[46] = system: NCI-H460
[47] = system: PC-3
[48] = system: ACHN
[49] = system: A549
[50] = system: OVCAR-4
[51] = system: LOX IMVI
[52] = system: SF-539
[53] = system: EKVX
[54] = system: 786-0
[55] = system: SF-268
[56] = system: SW-620
[57] = system: HOP-92
[58] = system: TK-10

CN(C)C(=O)/N=C1\SC(=N\c2ccccc2)/C(=N/c2ccccc2)N1c1ccc([N+](=O)[O-])cc1
GI50 [1]: > 100 µM (inactive)
GI50 [2]: > 100 µM (inactive)
GI50 [3]: > 100 µM (inactive)
GI50 [4]: > 100 µM (inactive)
GI50 [5]: > 100 µM (inactive)
GI50 [6]: > 100 µM
GI50 [7]: > 100 µM (inactive)
GI50 [8]: 49.8 µM (inactive)
GI50 [9]: > 100 µM (inactive)
GI50 [10]: > 100 µM (inactive)
GI50 [11]: 77.4 µM (inactive)
GI50 [12]: > 100 µM (inactive)
GI50 [13]: > 100 µM (inactive)
GI50 [14]: > 100 µM (inactive)
GI50 [15]: > 100 µM (inactive)
GI50 [16]: > 100 µM (inactive)
GI50 [17]: > 100 µM (inactive)
GI50 [18]: > 100 µM (inactive)
GI50 [19]: > 100 µM (inactive)
GI50 [20]: 51.6 µM (inactive)
GI50 [21]: > 100 µM (inactive)
GI50 [22]: > 100 µM (inactive)
GI50 [23]: 61.9 µM (inactive)
GI50 [24]: > 100 µM (inactive)
GI50 [25]: > 100 µM (inactive)
GI50 [26]: > 100 µM (inactive)
GI50 [27]: > 100 µM (inactive)
GI50 [28]: > 100 µM (inactive)
GI50 [29]: > 100 µM (inactive)
GI50 [30]: 52.4 µM (inactive)
GI50 [31]: > 100 µM (inactive)
GI50 [32]: > 100 µM (inactive)
GI50 [33]: > 100 µM (inactive)
GI50 [34]: 41.6 µM (inactive)
GI50 [35]: > 100 µM (inactive)
GI50 [36]: 84.7 µM (inactive)
GI50 [37]: > 100 µM (inactive)
GI50 [38]: > 100 µM (inactive)
GI50 [39]: > 100 µM (inactive)
GI50 [40]: > 100 µM (inactive)
GI50 [41]: > 100 µM (inactive)
GI50 [42]: 71 µM (inactive)
GI50 [43]: > 100 µM (inactive)
GI50 [44]: > 100 µM (inactive)
GI50 [45]: > 100 µM (inactive)
GI50 [46]: > 100 µM (inactive)
GI50 [47]: > 100 µM (inactive)

CCOC(=O)C(C)NC(=O)C(C)NC(=O)C(C)NC(=O)C(C)NC(=O)C(C)NC(=O)C(C)NC(=O)C(C)NC(=O)OCc1ccccc1 (stereo not drawn) (Cbz-AAAAAAA-OEt; configuration not given here)
GI50 [1]: > 100 µM (inactive)
GI50 [48]: > 100 µM (inactive)
GI50 [2]: > 100 µM (inactive)
GI50 [3]: > 100 µM (inactive)
GI50 [4]: > 100 µM (inactive)
GI50 [5]: > 100 µM (inactive)
GI50 [6]: > 100 µM
GI50 [49]: > 100 µM (inactive)
GI50 [7]: > 100 µM (inactive)
GI50 [50]: > 100 µM (inactive)
GI50 [51]: > 100 µM (inactive)
GI50 [8]: > 100 µM (inactive)
GI50 [9]: > 100 µM (inactive)
GI50 [52]: > 100 µM (inactive)
GI50 [10]: > 100 µM (inactive)
GI50 [11]: > 100 µM (inactive)
GI50 [12]: > 100 µM (inactive)
GI50 [13]: > 100 µM (inactive)
GI50 [14]: > 100 µM (inactive)
GI50 [15]: > 100 µM (inactive)
GI50 [53]: > 100 µM (inactive)
GI50 [16]: > 100 µM (inactive)
GI50 [17]: > 100 µM (inactive)
GI50 [18]: 40.8 µM (inactive)
GI50 [19]: > 100 µM (inactive)
GI50 [54]: > 100 µM (inactive)
GI50 [20]: > 100 µM (inactive)
GI50 [21]: > 100 µM (inactive)
GI50 [23]: > 100 µM (inactive)
GI50 [25]: > 100 µM (inactive)
GI50 [26]: > 100 µM (inactive)
GI50 [27]: > 100 µM (inactive)
GI50 [28]: > 100 µM (inactive)
GI50 [55]: > 100 µM (inactive)
GI50 [29]: > 100 µM (inactive)
GI50 [30]: > 100 µM (inactive)
GI50 [56]: > 100 µM (inactive)
GI50 [31]: > 100 µM (inactive)
GI50 [32]: > 100 µM (inactive)
GI50 [33]: > 100 µM (inactive)
GI50 [57]: > 100 µM (inactive)
GI50 [34]: > 100 µM (inactive)
GI50 [35]: > 100 µM (inactive)
GI50 [36]: > 100 µM (inactive)
GI50 [37]: > 100 µM (inactive)
GI50 [38]: > 100 µM (inactive)
GI50 [39]: > 100 µM (inactive)
GI50 [40]: > 100 µM (inactive)
GI50 [41]: > 100 µM (inactive)
GI50 [42]: > 100 µM (inactive)
GI50 [43]: > 100 µM (inactive)
GI50 [44]: > 100 µM (inactive)
GI50 [45]: > 100 µM (inactive)
GI50 [58]: > 100 µM (inactive)
GI50 [46]: > 100 µM (inactive)
GI50 [47]: > 100 µM (inactive)
